Measurements reported in PMC8310135 (Viruses, 2021).
Structures can show the parent of a compound that is named as a salt. Where two headings read alike, the source gives them in different places.

Columns and labels:
rLUJV/ZsG = assay: microbe, parasite or virus in culture; assay type: cell-based, Lujo virus
in vitro = conditions: human; for CC50: CC50 (50% cell cytotoxicity concentration)
[1] = Mammarenavirus lujoense, Huh-7, 50 nM, read-out: Relative ZsG (%) Mean
[2] = Mammarenavirus lujoense, Huh-7, 500 nM, read-out: Relative ZsG (%) Mean
[3] = Mammarenavirus lujoense, Huh-7, 5000 nM, read-out: Relative ZsG (%) Mean
[4] = Mammarenavirus lujoense, Huh-7, read-out: EC50 (concentration inhibiting ZsG expression by 50%)
[5] = read-out: EC50 (concentration inhibiting ZsG expression by 50%)
[6] = Mammarenavirus lujoense, Huh-7, read-out: Relative ZsG (%) Mean

O=c1c(-c2ccc(O)cc2)coc2cc(O)cc(O)c12 [Genistein]
activity at 0.05 µM (rLUJV/ZsG; [1]): 83% | activity at 0.5 µM (rLUJV/ZsG; [2]): 68% | activity at 5 µM (rLUJV/ZsG; [3]): 92% | viability at 0.05 µM (in vitro): 123% | viability at 0.5 µM (in vitro): 111% | viability at 5 µM (in vitro): 106%

C[C@@]1(O)[C@H](O)[C@@H](CO)O[C@H]1n1ccc(N)nc1=O [2ʹ-C-methylcytidine]
activity at 0.05 µM (rLUJV/ZsG; [1]): 124% | activity at 0.5 µM (rLUJV/ZsG; [2]): 144% | activity at 5 µM (rLUJV/ZsG; [3]): 103% | viability at 0.05 µM (in vitro): 102% | viability at 0.5 µM (in vitro): 104% | viability at 5 µM (in vitro): 99%

Cc1cn([C@@H]2O[C@H](CO)[C@@H](O)[C@H]2O)c(=O)nc1N [5-methylcytidine]
activity at 0.05 µM (rLUJV/ZsG; [1]): 122% | activity at 0.5 µM (rLUJV/ZsG; [2]): 129% | activity at 5 µM (rLUJV/ZsG; [3]): 108% | viability at 0.05 µM (in vitro): 96% | viability at 0.5 µM (in vitro): 97% | viability at 5 µM (in vitro): 98%

CCOC(=O)c1c(CSc2ccccc2)n(C)c2cc(Br)c(O)c(CN(C)C)c12 [Arbidol]
activity at 0.05 µM (rLUJV/ZsG; [1]): 77% | activity at 0.5 µM (rLUJV/ZsG; [2]): 65% | activity at 5 µM (rLUJV/ZsG; [3]): 40% | viability at 0.05 µM (in vitro): 135% | viability at 0.5 µM (in vitro): 139% | viability at 5 µM (in vitro): 109%

CN(C)CCOc1ccc(/C(=C(/CCCl)c2ccccc2)c2ccccc2)cc1 [Toremifene citrate]
SI (selectivity index, CC50 divided by EC50) (rLUJV/ZsG): 2.6 | EC50 (rLUJV/ZsG; [4]): 4.22 ± 0.78 µM | activity at 0.05 µM (rLUJV/ZsG; [1]): 86% | activity at 0.5 µM (rLUJV/ZsG; [2]): 88% | activity at 5 µM (rLUJV/ZsG; [3]): 9% | EC50 (rLUJV/ZsG; [5]): 4.22 ± 0.778 µM | viability at 0.05 µM (in vitro): 122% | viability at 0.5 µM (in vitro): 128% | viability at 5 µM (in vitro): 93% | CC50 (in vitro): 10.9 ± 3.14 µM

Nc1ncnc2c([C@@H]3N[C@H](CO)[C@@H](O)[C@H]3O)c[nH]c12 [BCX-4430]
activity at 0.05 µM (rLUJV/ZsG; [1]): 103% | activity at 0.5 µM (rLUJV/ZsG; [2]): 132% | activity at 5 µM (rLUJV/ZsG; [3]): 99% | viability at 0.05 µM (in vitro): 99% | viability at 0.5 µM (in vitro): 97% | viability at 5 µM (in vitro): 101%

O=c1cnn([C@@H]2O[C@H](CO)[C@@H](O)[C@H]2O)c(=O)[nH]1 [6-azauridine]
activity at 0.05 µM (rLUJV/ZsG; [1]): 95% | activity at 0.5 µM (rLUJV/ZsG; [2]): 87% | activity at 5 µM (rLUJV/ZsG; [3]): 78% | viability at 0.05 µM (in vitro): 98% | viability at 0.5 µM (in vitro): 103% | viability at 5 µM (in vitro): 97%

CN(C)C(=O)C(CCN1CCC(O)(c2ccc(Cl)cc2)CC1)(c1ccccc1)c1ccccc1 [Loperamide HCL]
SI (selectivity index, CC50 divided by EC50) (rLUJV/ZsG): 3.3 | EC50 (rLUJV/ZsG; [4]): 3.67 ± 0.99 µM | activity at 0.05 µM (rLUJV/ZsG; [1]): 104% | activity at 0.5 µM (rLUJV/ZsG; [2]): 81% | activity at 5 µM (rLUJV/ZsG; [3]): 1% | EC50 (rLUJV/ZsG; [5]): 3.67 ± 0.986 µM | viability at 0.05 µM (in vitro): 99% | viability at 0.5 µM (in vitro): 104% | viability at 5 µM (in vitro): 85% | CC50 (in vitro): 12.3 ± 3.57 µM

O=C1C=CN([C@@H]2O[C@H](CO)[C@@H](O)[C@H]2O)C(=O)C1 [3-deazauridine]
activity at 0.05 µM (rLUJV/ZsG; [1]): 108% | activity at 0.5 µM (rLUJV/ZsG; [2]): 105% | activity at 5 µM (rLUJV/ZsG; [3]): 111% | viability at 0.05 µM (in vitro): 103% | viability at 0.5 µM (in vitro): 96% | viability at 5 µM (in vitro): 99%

O=C1CCc2ccc(OCCCCN3CCN(c4cccc(Cl)c4Cl)CC3)cc2N1 [Aripiprazole]
activity at 0.05 µM (rLUJV/ZsG; [1]): 71% | activity at 0.5 µM (rLUJV/ZsG; [2]): 81% | activity at 5 µM (rLUJV/ZsG; [3]): 16% | viability at 0.05 µM (in vitro): 124% | viability at 0.5 µM (in vitro): 126% | viability at 5 µM (in vitro): 59%

Clc1ccc(CSC(Cn2ccnc2)c2ccc(Cl)cc2Cl)cc1 (centres unmarked) [Sulconazole nitrate]
activity at 0.05 µM (rLUJV/ZsG; [1]): 86% | activity at 0.5 µM (rLUJV/ZsG; [2]): 66% | activity at 5 µM (rLUJV/ZsG; [3]): 42% | viability at 0.05 µM (in vitro): 132% | viability at 0.5 µM (in vitro): 131% | viability at 5 µM (in vitro): 52%

COC(=O)C1=C(C)NC(C)=C(C(=O)OC2CCCN(Cc3ccccc3)C2)C1c1cccc([N+](=O)[O-])c1 (centres unmarked) [Benidipine]
activity at 0.05 µM (rLUJV/ZsG; [1]): 90% | activity at 0.5 µM (rLUJV/ZsG; [2]): 81% | activity at 5 µM (rLUJV/ZsG; [3]): 61% | viability at 0.05 µM (in vitro): 126% | viability at 0.5 µM (in vitro): 129% | viability at 5 µM (in vitro): 107%

COc1ccc2cc1Oc1ccc(cc1)C[C@H]1c3cc(c(OC)cc3CCN1C)Oc1c(OC)c(OC)cc3c1[C@H](C2)N(C)CC3 [Tetrandrine]
activity at 0.05 µM (rLUJV/ZsG; [1]): 95% | activity at 0.5 µM (rLUJV/ZsG; [2]): 75% | activity at 5 µM (rLUJV/ZsG; [3]): 2% | viability at 0.05 µM (in vitro): 115% | viability at 0.5 µM (in vitro): 95% | viability at 5 µM (in vitro): 1%

COc1cc2ncnc(Nc3cccc(Cl)c3)c2cc1OC [Tyrphostin AG1478]
activity at 0.05 µM (rLUJV/ZsG; [1]): 80% | activity at 0.5 µM (rLUJV/ZsG; [2]): 73% | activity at 5 µM (rLUJV/ZsG; [3]): 87% | viability at 0.05 µM (in vitro): 120% | viability at 0.5 µM (in vitro): 101% | viability at 5 µM (in vitro): 111%

Nc1ncnc2c1nnn2[C@@H]1O[C@H](CO)[C@@H](O)[C@H]1O [8-azaadenosine]
activity at 0.05 µM (rLUJV/ZsG; [1]): 118% | activity at 0.5 µM (rLUJV/ZsG; [2]): 121% | activity at 5 µM (rLUJV/ZsG; [3]): 6% | viability at 0.05 µM (in vitro): 98% | viability at 0.5 µM (in vitro): 103% | viability at 5 µM (in vitro): 47%

OC(CNCC(O)C1CCc2cc(F)ccc2O1)C1CCc2cc(F)ccc2O1 (centres unmarked) [Nebivolol]
activity at 0.05 µM (rLUJV/ZsG; [1]): 76% | activity at 0.5 µM (rLUJV/ZsG; [2]): 58% | activity at 5 µM (rLUJV/ZsG; [3]): 18% | viability at 0.05 µM (in vitro): 110% | viability at 0.5 µM (in vitro): 108% | viability at 5 µM (in vitro): 76%

O=c1[nH]c(=O)n([C@@H]2O[C@H](CO)[C@@H](O)[C@H]2O)cc1Br [5-bromouridine]
activity at 0.05 µM (rLUJV/ZsG; [1]): 134% | activity at 0.5 µM (rLUJV/ZsG; [2]): 131% | activity at 5 µM (rLUJV/ZsG; [3]): 106% | viability at 0.05 µM (in vitro): 97% | viability at 0.5 µM (in vitro): 102% | viability at 5 µM (in vitro): 100%

CC(C)(C)c1nc(-c2cccc(NS(=O)(=O)c3c(F)cccc3F)c2F)c(-c2ccnc(N)n2)s1 [Dabrafenib]
activity at 0.05 µM (rLUJV/ZsG; [1]): 87% | activity at 0.5 µM (rLUJV/ZsG; [2]): 79% | activity at 5 µM (rLUJV/ZsG; [3]): 22% | viability at 0.05 µM (in vitro): 119% | viability at 0.5 µM (in vitro): 117% | viability at 5 µM (in vitro): 68%

CC(C)C(=O)OC[C@@]1(N=[N+]=[N-])O[C@@H](n2ccc(N)nc2=O)[C@H](OC(=O)C(C)C)[C@@H]1OC(=O)C(C)C [Balapiravir (R1626), Balapiravir]
activity at 0.05 µM (rLUJV/ZsG; [1]): 139% | activity at 0.5 µM (rLUJV/ZsG; [2]): 81% | activity at 5 µM (rLUJV/ZsG; [3]): 122% | viability at 0.05 µM (in vitro): 104% | viability at 0.5 µM (in vitro): 104% | viability at 5 µM (in vitro): 99%

O=C1C(O)=C([C@H]2CC[C@H](c3ccc(Cl)cc3)CC2)C(=O)c2ccccc21 [Atovaquone]
activity at 0.05 µM (rLUJV/ZsG; [1]): 108% | activity at 0.5 µM (rLUJV/ZsG; [2]): 90% | activity at 5 µM (rLUJV/ZsG; [3]): 74% | viability at 0.05 µM (in vitro): 129% | viability at 0.5 µM (in vitro): 134% | viability at 5 µM (in vitro): 115%

Cc1c(F)cc(C(=O)NC2CC2)cc1-c1ccc(C(=O)NCC(C)(C)C)cn1 [Losmapimod]
activity at 0.05 µM (rLUJV/ZsG; [1]): 60% | activity at 0.5 µM (rLUJV/ZsG; [2]): 70% | activity at 5 µM (rLUJV/ZsG; [3]): 63% | viability at 0.05 µM (in vitro): 113% | viability at 0.5 µM (in vitro): 115% | viability at 5 µM (in vitro): 114%

CNCC[C@H](Oc1cccc2ccccc12)c1cccs1 [Duloxetine HCL]
activity at 0.05 µM (rLUJV/ZsG; [6]): 103% | activity at 0.5 µM (rLUJV/ZsG; [6]): 74% | activity at 5 µM (rLUJV/ZsG; [6]): 4% | viability at 0.05 µM (in vitro): 104% | viability at 0.5 µM (in vitro): 109% | viability at 5 µM (in vitro): 76%

C#Cc1cccc(Nc2ncnc3cc(OCCOC)c(OCCOC)cc23)c1 [Erlotinib]
activity at 0.05 µM (rLUJV/ZsG; [1]): 82% | activity at 0.5 µM (rLUJV/ZsG; [2]): 66% | activity at 5 µM (rLUJV/ZsG; [3]): 65% | viability at 0.05 µM (in vitro): 127% | viability at 0.5 µM (in vitro): 126% | viability at 5 µM (in vitro): 110%

COc1ccc(-c2ccc3c(N4CCOC[C@@H]4C)nc(N4CCOC[C@@H]4C)nc3n2)cc1CO [AZD8055]
activity at 0.05 µM (rLUJV/ZsG; [1]): 48% | activity at 0.5 µM (rLUJV/ZsG; [2]): 7% | activity at 5 µM (rLUJV/ZsG; [3]): 3% | viability at 0.05 µM (in vitro): 86% | viability at 0.5 µM (in vitro): 52% | viability at 5 µM (in vitro): 45%

Nc1ncn([C@@H]2O[C@H](CO)[C@@H](O)[C@H]2O)c(=O)n1 [5-azacytidine]
activity at 0.05 µM (rLUJV/ZsG; [1]): 90% | activity at 0.5 µM (rLUJV/ZsG; [2]): 112% | activity at 5 µM (rLUJV/ZsG; [3]): 104% | viability at 0.05 µM (in vitro): 96% | viability at 0.5 µM (in vitro): 102% | viability at 5 µM (in vitro): 102%

CN1CCC[C@@H]1CCO[C@](C)(c1ccccc1)c1ccc(Cl)cc1 [Clemastine fumarate]
activity at 0.05 µM (rLUJV/ZsG; [1]): 95% | activity at 0.5 µM (rLUJV/ZsG; [2]): 81% | activity at 5 µM (rLUJV/ZsG; [3]): 6% | viability at 0.05 µM (in vitro): 115% | viability at 0.5 µM (in vitro): 116% | viability at 5 µM (in vitro): 107%
